Experimental data published in patent publication EP4417602A1, “SUBSTITUTED PYRAZOLE CARBOXAMIDES, SALTS THEREOF AND THEIR USE AS HERBICIDALLY ACTIVE SUBSTANCES” (Bayer AG, priority 2023, dated 2024).

Assays:
SETVI [1] = test: B. Herbicidal post-emergence action on harmful plants (Tables B); type: in vivo, Setaria viridis; settings: application rate 1280 g/ha; Table B5
Description: (§1) Seeds of mono- and dicotyledonous weed plants were placed in plastic pots in sandy loam soil (doubly sown with in each case one species of mono- or dicotyledonous weed plants per pot), covered with soil and cultivated in a greenhouse under controlled growth conditions. 2 to 3 weeks after sowing, the test plants were treated at the one-leaf stage. The compounds of the invention, formulated in the form of wettable powders (WP) or as emulsion concentrates (EC), were applied onto the green parts of the plants as aqueous suspension or emulsion with addition of 0.5% additive at a water application rate of 600 liters per hectare (converted). After the test plants had been kept in the greenhouse under optimum growth conditions for about 3 weeks, the activity of the preparations was rated visually in comparison to untreated controls. For example, 100% activity = the plants have died, 0% activity = like control plants. Tables B1 to B12, below, show the effects of selected compounds of the general formula (I) according to table 1 on various harmful plants and an application rate corresponding to 1280 g/ha or below obtained by the experimental procedure mentioned above. Table B1a: post-emergence activity at 1280g/ha against ABUTH in %

POAAN [2] = test: as above; type: in vivo, Poa annua
Procedure, shortened: (§2)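 Greenhouse weeds grown in sandy loam were sprayed post-emergence at the one-leaf stage, 2-3 weeks after sowing. Compounds were applied as WP or EC in water with 0.5% additive at 600 L/ha, at 1280 g/ha or below. Visual damage was rated after about 3 weeks versus untreated plants (0-100%).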

POAAN [3] = test: A. Herbicidal pre-emergence action on harmful plants (Tables A); type: in vivo, Poa annua
Procedure, shortened: (§3)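 Values are visual percent damage relative to untreated controls, scored ca. 3 weeks after the compound was sprayed on the covering soil of sown pots (sandy loam) at rates up to 1280 g/ha, formulated as WP or EC with 0.5% additive.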

SETVI [4] = test: as above; type: in vivo, Setaria viridis; settings: visual grading after ca. 3 weeks vs untreated controls, 100% = plants have died off, 0% = as control plants
Procedure, shortened: as §3

ECHCG [5] = test: as above; type: in vivo, Echinochloa crus-galli; settings: visual grading after ca. 3 weeks vs untreated controls, 100% = plants have died off, 0% = as control plants
Procedure, shortened: as §3

MATIN [6] = test: as above; type: in vivo, Matricaria inodora; settings: visual grading after ca. 3 weeks vs untreated controls, 100% = plants have died off, 0% = as control plants
Procedure, shortened: as §3

STEME [7] = test: as above; type: in vivo, Stellaria media; settings: visual grading after ca. 3 weeks vs untreated controls, 100% = plants have died off, 0% = as control plants
Procedure, shortened: as §3

LOLRI [8] = test: B. Herbicidal post-emergence action on harmful plants (Tables B); type: in vivo, Lolium rigidum; settings: application rate 1280 g/ha; Table B3
Description: as §1

DIGSA [9] = test: A. Herbicidal pre-emergence action on harmful plants (Tables A); type: in vivo, Digitaria sanguinalis
Procedure, shortened: as §3

LOLRI [10] = test: as above; type: in vivo, Lolium rigidum; settings: visual grading after ca. 3 weeks vs untreated controls, 100% = plants have died off, 0% = as control plants
Procedure, shortened: as §3

ALOMY [11] = test: as above; type: in vivo, Alopecurus myosuroides
Procedure, shortened: as §3

STEME [12] = test: B. Herbicidal post-emergence action on harmful plants (Tables B); type: in vivo, Stellaria media; settings: application rate 1280 g/ha; Table B6
Procedure, shortened: as §2

VERPE = test: as above; type: in vivo, Veronica persica; settings: application rate 1280 g/ha; Table B11a
Procedure, shortened: as §2

MATIN [13] = test: as above; type: in vivo, Matricaria inodora
Procedure, shortened: as §2

ECHCG [14] = test: as above; type: in vivo, Echinochloa crus-galli; settings: application rate 1280 g/ha; Table B2a
Procedure, shortened: as §2

VIOTR = test: C. Herbicidal pre-emergence action, weed and crop plants (Tables C); type: in vivo, Viola tricolor; settings: application rate 320 g/ha; Table C12a
From the text: (§4) Seeds of mono- and dicotyledonous weed plants and crop plants were sown, in plastic or organic planting pots, in sandy loam and covered with soil. The compounds according to the invention, formulated in the form of wettable powders (WP) or as emulsifiable concentrates (EC), were applied to the surface of the covering soil as aqueous suspension or emulsion, with the addition of 0.5% of an additive, at an application rate of 6001 of water/ha (converted). Following treatment, the pots were placed in a greenhouse and kept under optimum growth conditions for the test plants. The visual grading of the damage to the test plants was carried out after ca. 3 weeks in comparison to untreated controls (herbicidal effect in percent (%): 100% effect = plants have died off, 0% effect = as control plants). Tables C1 to C12 below show the effects of selected compounds of the general formula (I) according to table 1 on various harmful plants and an application rate corresponding to 320 g/ha or below obtained by the experimental procedure mentioned above. Table C1: pre-emergence activity at 320g/ha against KCHSC in %

ECHCG [15] = test: as above; type: in vivo, Echinochloa crus-galli; settings: application rate 320 g/ha; Table C6a
From the text: as §4

TRZAS = test: F. Post-emergence effects on crop plants (Tables F); type: in vivo, Triticum aestivum; settings: application rate 80 g/ha, crop plant
From the text: (§5) Seeds of mono- and dicotyledonous weed plants and crop plants were sown, in plastic or organic planting pots, in sandy loam, covered with soil and grown in a greenhouse under controlled growth conditions. 2 to 3 weeks after sowing, the test plants were sprayed in the single-leaf stage. The compounds according to the invention, formulated in form of wettable powders (WP) or as emulsifiable concentrates (EC), were sprayed onto the green plant parts as aqueous suspension or emulsion, with the addition of 0.5% of an additive, at an application rate of 6001 of water/ha (converted). The test plants were placed in the greenhouse for ca. 3 weeks under optimum growth conditions, and then the effect of the preparations was assessed visually in comparison with untreated controls (herbicidal effect in percent (%): 100% effect = plants have died off, 0% effect = as control plants). Tables F1 to F5 below show the effects of selected compounds of the general formula (I) according to table 1 on various crop plants and an application rate corresponding to 320 g/ha or below obtained by the experimental procedure mentioned above. Table […]: post-emergence activity at 320g/ha against ZEAMX in %

GLXMA [16] = test: D. Pre-emergence effects on crop plants (Tables D); type: in vivo, Glycine max; settings: crop plant; application rate 80 g/ha; Table D4b
From the text: (§6) Seeds of mono- and dicotyledonous weed plants and crop plants were sown, in plastic or organic planting pots, in sandy loam and covered with soil. The compounds according to the invention, formulated in the form of wettable powders (WP) or as emulsifiable concentrates (EC), were applied to the surface of the covering soil as aqueous suspension or emulsion, with the addition of 0.5% of an additive, at an application rate of 6001 of water/ha (converted).
(§7) Following treatment, the pots were placed in a greenhouse and kept under optimum growth conditions for the test plants. The visual grading of the damage to the test plants was carried out after ca. 3 weeks in comparison to untreated controls (herbicidal effect in percent (%): 100% effect = plants have died off, 0% effect = as control plants).
(§8) Tables D1 to D5 below show the effects of various compounds of the general formula (I) according to Table 1 on various crop plants and an application rate corresponding to 320 g/ha or below obtained by the experimental procedure mentioned above in Biological Examples, Section C. Table D1a: pre-emergence activity at 320g/ha against ZEAMX in %

ZEAMX [17] = test: F. Post-emergence effects on crop plants (Tables F); type: in vivo, Zea mays; settings: crop plant
From the text: as §5

BRSNW [18] = test: as above; type: in vivo, Brassica napus; settings: application rate 80 g/ha, crop plant
From the text: as §5

ZEAMX [19] = test: D. Pre-emergence effects on crop plants (Tables D); type: in vivo, Zea mays; settings: crop plant; application rate 80 g/ha; Table D1b
From the text: as §6, §7, §8

MATIN [20] = test: C. Herbicidal pre-emergence action, weed and crop plants (Tables C); type: in vivo, Matricaria inodora; settings: application rate 320 g/ha; Table C8
From the text: as §4

ALOMY [21] = test: as above; type: in vivo, Alopecurus myosuroides; settings: application rate 320 g/ha; Table C2a
From the text: as §4

DIGSA [22] = test: as above; type: in vivo, Digitaria sanguinalis; settings: application rate 320 g/ha; Table C5a
From the text: as §4

GLXMA [23] = test: F. Post-emergence effects on crop plants (Tables F); type: in vivo, Glycine max; settings: application rate 320 g/ha, crop plant
From the text: as §5

BRSNW [24] = test: D. Pre-emergence effects on crop plants (Tables D); type: in vivo, Brassica napus; settings: application rate 80 g/ha, crop plant
From the text: as §6, §7, §8

[25] = application rate 1280 g/ha, Table B7a
[26] = application rate 80 g/ha, Table A7c
[27] = application rate 320 g/ha, Table A7b
[28] = application rate 1280 g/ha, visual grading after ca. 3 weeks vs untreated controls, 100% = plants have died off, 0% = as control plants
[29] = application rate 1280 g/ha, Table A12a
[30] = application rate 1280 g/ha, Table A9a

Compound	post-emergence activity against POAAN (POAAN [2]; [25])	pre-emergence activity against POAAN (POAAN [3]; [26])	pre-emergence activity against POAAN (POAAN [3]; [27])	pre-emergence activity against POAAN (POAAN [3]; [28])	pre-emergence activity against SETVI (SETVI [4]; application rate 320 g/ha)	pre-emergence activity against SETVI (SETVI [4]; application rate 1280 g/ha)	pre-emergence activity against ECHCG (ECHCG [5]; application rate 320 g/ha)	pre-emergence activity against ECHCG (ECHCG [5]; application rate 1280 g/ha)	pre-emergence activity against MATIN (MATIN [6]; application rate 1280 g/ha)	pre-emergence activity against STEME (STEME [7]; application rate 320 g/ha)	pre-emergence activity against STEME (STEME [7]; application rate 1280 g/ha)	post-emergence activity against LOLRI (LOLRI [8])	pre-emergence activity against DIGSA (DIGSA [9]; [29])	pre-emergence activity against LOLRI (LOLRI [10]; application rate 320 g/ha)	pre-emergence activity against LOLRI (LOLRI [10]; application rate 1280 g/ha)	pre-emergence activity against ALOMY (ALOMY [11]; [30])	also measured
COCc1c(C(=O)N2CCCC2Cc2c(F)cccc2F)cnn1C (racemic) [Example I-124]	90%	90%	100%	100%	90%	90%	90%	100%	100%	90%	90%	90%	90%	90%	100%		post-emergence activity against SETVI (SETVI [1]): 90%
COCc1nn(C)cc1C(=O)N1CCCC1Cc1ccccc1Br (racemic) [Example I-018]	90%	100%	100%	100%	100%	100%	90%	100%	90%	90%	90%	90%	100%	100%	100%	100%	pre-emergence activity against ALOMY (ALOMY [11]; application rate 320 g/ha, Table A9b): 90%; post-emergence activity against STEME (STEME [12]): 90%; post-emergence activity against POAAN (POAAN [2]; application rate 320 g/ha, Table B7b): 90%; pre-emergence activity against ECHCG (ECHCG [5]; application rate 80 g/ha): 90%; post-emergence activity against VERPE (VERPE): 90%; pre-emergence activity against MATIN (MATIN [6]; application rate 80 g/ha): 90%; pre-emergence activity against MATIN (MATIN [6]; application rate 320 g/ha): 90%; post-emergence activity against MATIN (MATIN [13]; application rate 320 g/ha, Table B4b): 90%; post-emergence activity against MATIN (MATIN [13]; application rate 1280 g/ha, Table B4a): 90%; pre-emergence activity against LOLRI (LOLRI [10]; application rate 80 g/ha): 90%; post-emergence activity against ECHCG (ECHCG [14]): 90%
Cn1cc(C(=O)N2CCCC2Cc2ccccc2F)c(COCC(F)F)n1 (racemic) [Example I-044]		90%	100%	100%		90%	90%	100%	90%		90%		100%	90%	90%	90%	pre-emergence activity against VIOTR (VIOTR): 90%; pre-emergence activity against ECHCG (ECHCG [15]): 90%; post-emergence activity against TRZAS in % (TRZAS): 0%; pre-emergence activity against GLXMA (GLXMA [16]): 0%; post-emergence activity against ZEAMX in % (ZEAMX [17]; application rate 80 g/ha): 0%; post-emergence activity against ZEAMX in % (ZEAMX [17]; application rate 320 g/ha): 0%; post-emergence activity against BRSNW in % (BRSNW [18]): 0%; pre-emergence activity against ZEAMX (ZEAMX [19]): 0%; pre-emergence activity against MATIN (MATIN [20]): 90%; pre-emergence activity against DIGSA (DIGSA [9]; application rate 320 g/ha, Table A12b): 90%; pre-emergence activity against ALOMY (ALOMY [21]): 90%; pre-emergence activity against DIGSA (DIGSA [22]): 90%; post-emergence activity against GLXMA in % (GLXMA [23]): 0%; pre-emergence activity against BRSNW in % (BRSNW [24]): 0%
